Measured values reported in ChEMBL document CHEMBL2331088, “An α-carbonic anhydrase from the thermophilic bacterium Sulphurihydrogenibium azorense is the fastest enzyme known for the CO2 hydration reaction” (Bioorg Med Chem, 2013).

Tests used:
[1] = Inhibition of Sulfurihydrogenibium yellowstonense YO3AOP1 carbonic anhydrase preincubated for 15 mins by CO2 hydration stopped-flow assay
[2] = Inhibition of Sulfurihydrogenibium azorense carbonic anhydrase preincubated for 15 mins by CO2 hydration stopped-flow assay
[3] = Inhibition of Helicobacter pylori alpha-carbonic anhydrase preincubated for 15 mins by CO2 hydration stopped-flow assay

`NS(=O)(=O)O` [SULFAMATE] gave a Ki [1] of 42 µM, a Ki [2] of 4.8 µM and a Ki [3] of 80 µM.

With `Cl` [HYDROCHLORIC ACID] the Ki [1] was 8300 µM, the Ki [2] was 850 µM and the Ki [3] was 2700 µM.

With `N=C=[Se]` [ISOSELENOCYANATE] the Ki [1] was 70 µM, the Ki [2] was 490 µM and the Ki [3] was 730 µM.

In the case of `N=C=S` [ISOTHIOCYANATE], the Ki [1] is reported as 710 µM, the Ki [2] is reported as 580 µM and the Ki [3] is reported as 4100 µM.

In the case of `CC(=O)Nc1nnc(S(N)(=O)=O)s1` [ACETAZOLAMIDE], the Ki [1] is reported as 0.004 µM and the Ki [2] is reported as 0.0009 µM.

Work on `F` [FLUORIDE ION] yielded a Ki [1] of 417000 µM, a Ki [2] of 980 µM and a Ki [3] of 4080 µM.

Compound `O=S(=O)(O)O` [SULFURIC ACID] has a Ki [1] of 820 µM, a Ki [2] of 10000 µM and a Ki [3] of 820 µM.

With `I` [IODIDE] the Ki [1] was 860 µM, the Ki [2] was 870 µM and the Ki [3] was 6050 µM.

With `CCN(CC)C(=S)S` [DITIOCARB] the Ki [1] was 4 µM, the Ki [2] was 3.1 µM and the Ki [3] was 5 µM.

`O=C(O)O` [BICARBONATE] showed a Ki [1] of 33200 µM and a Ki [2] of 15700 µM.

For `S` [HYDROGEN SULFIDE], the Ki [1] was 580 µM and the Ki [2] was 380 µM.

For `Br` [BROMIDE], the Ki [1] was 49000 µM, the Ki [2] was 940 µM and the Ki [3] was 2410 µM.

In the case of `O=S(O)O` [SULFUROUS ACID], the Ki [1] is reported as 21100 µM, the Ki [2] is reported as 950 µM and the Ki [3] is reported as 990 µM.

In the case of `S=C(S)S` [CARBONOTRITHIOIC ACID], the Ki [1] is reported as 60 µM, the Ki [2] is reported as 39 µM and the Ki [3] is reported as 380 µM.
